Experiments:
[1] = tested on: T. cruzi Tulahuen trypomastigotes; experiment: T. cruzi trypomastigote assay (Cell Titer-Glo viability, ATP luminescence); assay type: cell-based, Trypanosoma cruzi; settings: for Trypomastigotes pIC50 48 hours: 48 hours incubation; for Trypomastigotes pIC50 48 hours / Trypomastigotes pIC50 72 hours: pIC50 = -log10 IC50 in molar units; for Trypomastigotes pIC50 72 hours: 72 hours incubation; for 72 pIC50 (trypomastigotes, raw data of Fig 1D): 72 hours, plotted values, censored values given without sign; for 48 pIC50 / 72 pIC50: trypomastigote assay; for 48 pIC50: 48 h; for 72 pIC50: 72 h
Summary of the method: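 Tulahuen trypomastigotes from infected LLC-MK2 culture supernatants (days 5–8) plated at 5 × 10^4 per well in DMEM/2% FBS with compound at 5 μM single-shot final or in dose response. Viability by CellTiter-Glo ATP luminescence after 10 min at room temperature, normalised to no-cell (100%) and DMSO (0%) controls.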

TcCYP51 = settings: formerly reported; cited from earlier work
[2] = tested on: T. cruzi intracellular amastigotes in H9c2 cells; experiment: Rate-of-Kill (RoK) high-content imaging assay, amastigotes per cell (AM/CELL) and curve descriptors; assay type: cell-based, Trypanosoma cruzi; parameters: key to ME_24h / ME_48h / ME_72h: % reduction in parasite burden (cidal response); t50pct_MCC50 / t50pct_Cmax: unit not given here; settings: for ME_24h: 24h; for ME_48h: 48h; for ME_72h: 72h; for tlag_Cmax / t50pct_Cmax: at Cmax; for t50pct_MCC50 / tlag_MCC50: at MCC50, figure 5; for ME_24h (%): maximum effect at 24 h; for ME_24h (%) / ME_48h (%) / ME_72h (%): RoK assay; for ME_48h (%): maximum effect at 48 h; for ME_72h (%): maximum effect at 72 h; for ME 24h (maximum effect at 24 hours, intracellular amastigotes): maximum percentage of parasite burden reduction reached by any concentration
Summary of the method: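 H9c2 cardiomyocytes infected with T. cruzi trypomastigotes (MOI 8, 18 h), then compounds tested at 5 μM single shot or 11-point 1/3 dilution from 50 μM. DRAQ5-stained nuclei imaged over a time course. Amastigotes per cell normalised to infected cells at 4 h (0%) and non-infected cells (100%).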

| SMILES | Trypomastigotes pIC50 48 hours [1] | Trypomastigotes pIC50 72 hours [1] | CYP51 pIC50 (TcCYP51) | ME_24h ([2]; figure 5) | ME_48h ([2]; figure 5) | ME_72h ([2]; figure 5) | MCCE ([2]; RoK curve descriptor) [µM] | AM/CELL NORM ([2]; Time 4, sheet figure 4 A) | AM/CELL NORM ([2]; Time 24, sheet figure 4 A) | tlag_Cmax [2] [h] | t50pct_Cmax ([2]; figure 5) | tlag_Cmax ([2]; figure 5) | t50pct_MCC50 [2] | tlag_MCC50 [2] | MCC50 ([2]; figure 5) [µM] | MCCE ([2]; figure 5) | ME_24h (%) [2] [%] | ME_48h (%) [2] [%] | ME_72h (%) [2] [%] | ME 24h (maximum effect at 24 hours, intracellular amastigotes) [2] [%] | further results |
| --- | --- | --- | --- | --- | --- | --- | --- | --- | --- | --- | --- | --- | --- | --- | --- | --- | --- | --- | --- | --- | --- |
| c1ccc(CCNCc2cncc3nc(-c4cnccn4)n(C4CCCCC4)c23)cc1 [TCMDC-143346] | < 4.3 | < 4.3 | 7 | -174.15 | -60.952 | 17.2662 | 0.2 | -7.276 | -174.15 | 24.0 | 72 | 24 | 72 | 72 | 50 | 0.2058 | -174.2 | -61.0 | 17.3 | -174.15 | 72 pIC50 (trypomastigotes, raw data of Fig 1D) [1]: < 4.3; 48 pIC50 ([1]; figure 1A): < 4.3; 72 pIC50 ([1]; figure 1A): < 4.3; 72 pIC50 ([1]; figure 1B): < 4.3; AM/CELL NORM ([2]; Time 48, sheet figure 4 A): -60.952; AM/CELL NORM ([2]; Time 72, sheet figure 4 A): 6.4629 |
| COc1cc(-c2nc(N3CCOCC3)sc2-c2ccnc(NC3CCOCC3)n2)ccc1Cl.O=C(O)C(F)(F)F [TCMDC-143414] | < 4.3 | < 4.3 | < 4 | -30.3967 | 4.32 | 10.4319 | 0.34 | -8.885 | -7.51 | 14.0 | 72 | 14 | 72 | 72 | 50 | 0.3429 | -30.4 | 4.3 | 10.4 | -7.51 | 72 pIC50 (trypomastigotes, raw data of Fig 1D) [1]: < 4.3; 48 pIC50 ([1]; figure 1A): < 4.3; 72 pIC50 ([1]; figure 1A): < 4.3; 72 pIC50 ([1]; figure 1B): < 4.3; AM/CELL NORM ([2]; Time 48, sheet figure 4 A): 27.1663; AM/CELL NORM ([2]; Time 72, sheet figure 4 A): 39.4258 |
| OCCCNc1nc(Nc2ccncc2)nc2ccccc12 [TCMDC-143476] | 5.3 | 5.6 | < 4 | -15.4195 | -2.754 | -23.113 | 0.6 | -9.731 | -26.5514 | 24.0 | 72 | 24 | 72 | 72 | 50 | 0.6173 | -15.4 | -2.8 | -23.1 | -15.4195 | AM/CELL NORM ([2]; Time 48, sheet figure 4 A): -22.3232; AM/CELL NORM ([2]; Time 72, sheet figure 4 A): -41.9873 |
| CNc1c(C(N)=O)c(-c2ccc3scnc3c2)nn1CC(F)(F)F.O=C(O)C(F)(F)F [TCMDC-143463] | < 4.3 | < 4.3 | < 4 | -5.4236 | -24.264 | 4.63 | 0.2 | 20.0861 | -5.743 | 48.0 | 72 | 48 | 72 | 72 | 50 | 0.2058 | -5.4 | -24.3 | 4.6 | -5.104 | 72 pIC50 (trypomastigotes, raw data of Fig 1D) [1]: < 4.3; 48 pIC50 ([1]; figure 1A): < 4.3; 72 pIC50 ([1]; figure 1A): < 4.3; 72 pIC50 ([1]; figure 1B): < 4.3; AM/CELL NORM ([2]; Time 48, sheet figure 4 A): -19.2942; AM/CELL NORM ([2]; Time 72, sheet figure 4 A): 13.2045 |
| O[C@H]1CC[C@H](Nc2nccc(-c3sc(C4CCOCC4)nc3-c3ccc(F)c(F)c3)n2)CC1 [TCMDC-143387] | 4.5 | < 4.3 | < 4 | -7.952 | -1.621 | 23.2073 | 0.07 |  |  | 24.0 | 72 | 24 | 72 | 72 | 50 | 0.06859 | -8.0 | -1.6 | 23.2 | -7.952 | AM/CELL NORM ([2]; Time 4, figure 4 A): 2.207; AM/CELL NORM ([2]; Time 24, figure 4 A): -7.952; AM/CELL NORM ([2]; Time 48, figure 4 A): -3.462; AM/CELL NORM ([2]; Time 72, figure 4 A): 23.2073 |
| COc1ccc(CN(C)Cc2ccncc2)cc1-c1ccc(S(=O)(=O)NC2CCC2)s1.O=C(O)C(F)(F)F.O=C(O)C(F)(F)F [TCMDC-143084] | 5 | 4.9 | 7.1 | -28.7145 | 25.1182 | 44.4783 | 0.6 | -8.521 | -28.7145 | 24.0 | 72 | 24 | 72 | 72 | 50 | 0.6173 | -28.7 | 25.1 | 44.5 | -28.7145 | AM/CELL NORM ([2]; Time 48, sheet figure 4 A): 25.1182; AM/CELL NORM ([2]; Time 72, sheet figure 4 A): 44.4783 |
| CCCCNc1nccc(-c2c(-c3ccc(F)cc3)nn3c(N4CCOCC4)cccc23)n1 [TCMDC-143617] | 5.1 | < 4.3 | < 4 | -170.943 | -538.575 | -488.335 | 5.6 | -16.0226 | -225.539 | 72.0 | 72 | 72 | 72 | 72 | 50 | 5.556 | -170.9 | -538.6 | -488.3 | -170.943 | AM/CELL NORM ([2]; Time 48, sheet figure 4 A): -1143.86; AM/CELL NORM ([2]; Time 72, sheet figure 4 A): -2417.88 |

From publication PMC8318231, “Rate-of-Kill (RoK) assays to triage large compound sets for Chagas disease drug discovery: Application to GSK Chagas Box” (PLoS Neglected Tropical Diseases, 2021)
